Columns and labels:
OPM2 cells = assay: Cell proliferation assay (ViaLight, cellular ATP); type: cell-based; details: Homo sapiens, OPM-2, 120 h, 5 days, 5 μM to 1 nM
Procedure, shortened: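 1×10^3 cells per well exposed to compounds at final 5 μM to 1 nM for 5 days. Viability read as cellular ATP by ViaLight luminescence, technical triplicates. GI50 computed from the dose–response.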

PI3K [1] = biological target: T1, PI3K; assay: PI3K enzyme activity assay (luminescence, ATP consumption, Kinase-Glo); type: biochemical; details: 10 μM ATP, 180 μM phosphatidyl inositol, 60 min
T1 construct: PI3K Enzyme Activity Assay IC50 (nM); other: 10 μM ATP, 180 μM phosphatidyl inositol, 60 min
Protocol: (§1) PI3K activity was determined using a luminescence assay measuring ATP consumption as described previously (J.-A. Pinson, Z. Zheng, M. S. Miller, D. K. Chalmers, I. G. Jennings, P. E. Thompson, L-Aminoacyl-triazine derivatives are isoform-selective PI3Kβ inhibitors that target nonconserved Asp862 of PI3Kb, ACS Med. Chem. Lett. 4 (2013) 206-210). PI3K enzyme activity was determined in 25 μl of 20 mM HEPES pH 7.5, 5 mM MgCl2 with 180 μM phosphatidyl inositol and 10 μMATP. After a 60 min incubation at room temperature the reaction was stopped by the addition of Kinase-Glo (Promega) followed by a further 15 min incubation. Luminescence was then read using a Fluostar plate reader (BMGLabtech).
(§2) Inhibitors were diluted in 20% (v/v) DMSO at the indicated concentrations in order to generate a concentration versus inhibition of enzyme activity curve which was then analysed using GraphPad Prism version 8.00 for Windows, (GraphPad Software, San Diego California USA) in order to calculate the IC50. Standard deviations for the calculated IC50's are within 25% of the mean.

[2] = biological target: GST-BRD4 (binding domain 1, amino acids 44-168) (Homo sapiens, UniProt O60885); assay: Bromodomain binding assay (FRET); details: BRD4 binding domain 1, tetracetylated histone 4 peptide
Protocol: Inhibition of bromodomain binding was measured using a FRET (fluorescence resonance energy transfer) based assay. […] In the presence of the two detection reagents, streptavidin D2 and anti-GST-Eu (CisBio) binding trig-gers a FRET signal detected by fluorescence at 665 nm as measured using a Pherastar reader (BMG Labtech). Data was analysed using GraphPad Prism version 8.00 for Windows, (GraphPad Software, San Diego California USA) in order to calculate the IC50. Standard deviations for the calculated IC50's are within 25% of the mean.

PI3K [3] = assay: PI3K enzyme activity assay (luminescence, ATP consumption, Kinase-Glo); type: biochemical
Protocol: as §1, §2

[4] = test system: MLL-AF9 cells (IBET-151-sensitive and IBET-151-resistant); assay: Apoptosis assay in BET-inhibitor-resistant cells (Annexin V/PI); type: cell-based, mouse; details: 1 μM, 72 h
Protocol: Mouse AML cells; MLL-AF9 (IBET-151-sensitive and IBET-151-resistant) (5×10^4) were treated with indicated compounds for 72 h. Apoptotic analysis was performed by flow cytometry using Annexin V/propidium iodide (PI) stains. Data were collected on a BD LSR-Fortessa X20 (BD Biosciences) and analysed using FlowJo Software, version 10.0.7 (Tree Star). IC50 were calculated using the GraphPad Prism Software Version 7.0c. Data are representative of biological triplicates.

CC(=O)N1c2ccc(-c3ccc(C(=O)NCCNC(=O)c4cn5cc(-c6cnc(N)nc6)nc(N6CCOCC6)c5n4)cc3)cc2CCC1C (centres unmarked) [Cpd 009, N-(2-(4-(1-Acetyl-2-methyl-1,2,3,4-tetrahydroquinolin-6-yl)benzamido)ethyl)-6-(2-ami-nopyrimidin-5-yl)-8-morpholinoimidazo[1,2-a]pyrazine-2-carboxamide]
GI50 (OPM2 cells): ≤ 100 nM | IC50 (PI3K [1]): 100 to 500 nM | IC50 [2]: ≤ 100 nM

CC(=O)N1c2ccc(-c3ccc(C(=O)NCCCNC(=O)c4cn5cc(-c6cnc(N)nc6)nc(N6CCOCC6)c5n4)cc3)cc2CC[C@@H]1C [Cpd 013, (S)-N-(3-(4-(1-Acetyl-2-methyl-1,2,3,4-tetrahydroquinolin-6-yl)benzamido)propyl)-6-(2-aminopyrimidin-5-yl)-8-morpholinoimidazo[1,2-a]pyrazine-2-carboxamide]
GI50 (OPM2 cells): > 500 nM | IC50 (PI3K [1]): ≤ 100 nM | IC50 [2]: ≤ 100 nM

CC(=O)N1c2ccc(-c3ccc(CNC(=O)c4cn5cc(-c6cnc(N)nc6)nc(N6CCOCC6)c5n4)cc3)cc2CC[C@H]1C [Cpd 034, (R)-N-(4-(1-acetyl-2-methyl-1,2,3,4-tetrahydroquinolin-6-yl)benzyl)-6-(2-aminopyrimidin-5-yl)-8-morpholinoimidazo[1,2-a]pyrazine-2-carboxamide]
selectivity (PI3K) (PI3K [3]): selective PI3K inhibitor

COc1cc2c(cc1-c1c(C)noc1C)ncc1[nH]c(=O)n([C@H](C)c3ccccn3)c12 [I-BET151, reference compound]
apoptosis in I-BET151-resistant MLL-AF9 cells [4]: resistance to I-BET151 drug in the resistant cells was confirmed

Source: patent US20230312577A1, “DUAL KINASE-BROMODOMAIN INHIBITORS” (MONASH UNIVERSITY, priority 2020, published 2023)
